Experimental data: the SangsterLogP compilation

Assay: method code SF-AS, from DOI: 10.1002/qsar.19900090404

Compared with `Clc1ncccn1`, `Fc1ncccn1` is lower in logP: 0.36 for the first, 0.02 for the second.

Compared with `CCOC(=O)c1ccnnc1`, `COC(=O)c1ccnnc1` is lower in logP: 0.23 for the first, -0.27 for the second.

Going from `CCOc1ccncn1` to `COc1ccncn1`, the logP falls from 0.97 to 0.54.

Going from `CC(=O)Nc1cncnc1` to `COC(=O)c1cncnc1`, the logP rises from -0.22 to 0.03.

Compared with `CCOC(=O)c1cnccn1`, `NC(=O)c1cnccn1` is lower in logP: 0.28 for the first, -0.5 for the second.

First: CCOc1cncnc1
Second: COc1cncnc1
The logP of the first is higher: 0.56 for the first, 0.07 for the second.

Compared with `Nc1ccncn1`, `NC(=O)c1ccncn1` is lower in logP: -0.25 for the first, -0.68 for the second.

Compared with `CCOc1cnccn1`, `CCCOc1cnccn1` is higher in logP: 1.28 for the first, 1.84 for the second.

Compared with `Clc1cccnn1`, `Cc1cccnn1` is lower in logP: 0.1 for the first, -0.35 for the second.

Compared with `CCOc1cccnn1`, `COc1cccnn1` is lower in logP: 0.63 for the first, 0.08 for the second.

Compared with `NC(=O)c1ccnnc1`, `Nc1ccnnc1` is higher in logP: -0.96 for the first, -0.53 for the second.

First: CN(C)c1ncccn1
Second: Cc1ncccn1
The logP of the first is higher: 1.07 for the first, -0.05 for the second.

Going from `CCCOc1ccccn1` to `CCOc1ccccn1`, the logP falls from 2.38 to 1.81.

First: CSc1cnccn1
Second: Fc1cnccn1
The logP of the first is higher: 1.17 for the first, 0.29 for the second.

Going from `N#Cc1cnccn1` to `Clc1cnccn1`, the logP rises from -0.01 to 0.7.

Compared with `Cc1ccnnc1`, `CCOc1ccnnc1` is higher in logP: -0.32 for the first, 0.2 for the second.

Compared with `CN(C)c1cncnc1`, `Cc1cncnc1` is lower in logP: 0.46 for the first, 0.01 for the second.

Going from `COC(=O)c1ccncn1` to `CC(=O)Nc1ccncn1`, the logP rises from -0.27 to 0.03.

First: CC(=O)Nc1cnccn1
Second: CC(=O)c1cnccn1
The logP of the first is lower: -0.03 for the first, 0.2 for the second.

`CN(C)c1ccncn1` and `COc1cnccn1` are within 0.2 log units of each other in logP: 0.58 for the first, 0.73 for the second.

Going from `N#Cc1ncccn1` to `CSc1ncccn1`, the logP rises from -0.31 to 1.01.

Compared with `COc1ncccn1`, `CCOc1ncccn1` is higher in logP: 0.23 for the first, 0.74 for the second.

Compared with `CCOC(=O)c1cncnc1`, `NC(=O)c1cncnc1` is lower in logP: 0.52 for the first, -0.92 for the second.

Going from `NC(=O)c1ncccn1` to `COC(=O)c1ncccn1`, the logP rises from -1.2 to -0.71.

First: Fc1ccccn1
Second: CCc1ccccn1
The logP of the first is lower: 0.84 for the first, 1.6 for the second.

First: COC(=O)c1cccnn1
Second: NC(=O)c1cccnn1
The logP of the first is higher: -0.43 for the first, -0.73 for the second.

First: CC(=O)Nc1ccnnc1
Second: N#Cc1ccnnc1
The logP of the first is higher: -0.41 for the first, -0.63 for the second.

First: Fc1cncnc1
Second: CCOC(=O)c1ncccn1
The logP of the first is higher: -0.03 for the first, -0.31 for the second.
